Measurements taken from article PMC11747885, “Potent inhibitors of the human RNA ligase Rlig1 highlights its role in RNA integrity maintenance under oxidative cellular stress” (Chemical Science, 2025).
Read-outs that look alike come from different tables or passages of the source.

How the values were obtained:
Rlig1-AMP [1] = target: T1, Rlig1-AMP (Homo sapiens, UniProt Q8N999); assay: Radioactive RNA ligation assay (hit validation, 10 µM test and IC50 determination); format: biochemical
T1 construct: made in house; host or cells: E. coli BL21 (DE3), pET15b-Rlig1
T1 sequence (Q8N999 whole entry): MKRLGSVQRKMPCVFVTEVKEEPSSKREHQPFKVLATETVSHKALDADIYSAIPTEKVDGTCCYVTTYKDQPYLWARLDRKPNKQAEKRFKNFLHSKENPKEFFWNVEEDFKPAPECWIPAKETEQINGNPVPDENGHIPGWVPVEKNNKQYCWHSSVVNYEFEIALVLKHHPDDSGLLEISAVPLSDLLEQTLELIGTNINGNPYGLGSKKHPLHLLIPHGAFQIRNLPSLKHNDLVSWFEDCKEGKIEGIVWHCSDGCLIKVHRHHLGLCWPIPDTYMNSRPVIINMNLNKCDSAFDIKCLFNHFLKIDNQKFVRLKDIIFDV

Rlig1-AMP [2] = target: T1, Rlig1-AMP; assay: FRET-based high-throughput screening of inhibitors for Rlig1-AMP; format: biochemical
[3] = sheet HTS hits, MedChemExpress library
[4] = sheet HTS hits, difference of raw data w/o and w enzyme
[5] = HTS hits, MedChemExpress library
[6] = HTS hits, difference of raw data without and with enzyme
[7] = HTS hits, difference of raw data w/o and w enzyme
[8] = HTS hits, normalised value of 1-D Distance
[9] = HTS hits, normalized value (npi)

Row | Compound | 1-D Distance (Rlig1-AMP [2]; [6]) | Raw data [w Enyzm] (Rlig1-AMP [2]; HTS hits, with enzyme) | Raw data [w/o Enzym] (Rlig1-AMP [2]; HTS hits, without enzyme) | 1-D Distance (Rlig1-AMP [2]; [7]) | also measured
1 | Cc1cc(-c2cc(O)ccc2Cl)cc2nnc(Nc3ccc(OCCN4CCCC4)cc3)nc12.Cl [Compound 6, reference compound] | – | – | – | – | inhibition in radioactive ligation assay (hit validation) (Rlig1-AMP [1]; 10 µM compound, 37 °C, 20 min): above 70%
2 | Cc1cc(Nc2ccc(NC(=O)c3ccc(Nc4cccc5ccccc45)cc3)cc2)nc(N)n1 [Compound 44] | – | – | – | – | inhibition of Rlig1-AMP ligation (urea-PAGE) (Rlig1-AMP [1]; 10 μM compound, 500 nM Rlig1-AMP, 20 min 37 °C): inactive
3 | C/C1=C2/[N-][C@H]([C@H](CC(N)=O)[C@@]2(C)CCC(=O)NC[C@H](C)OP(=O)([O-])O[C@H]2[C@@H](O)[C@@H](n3cnc4cc(C)c(C)cc43)O[C@@H]2CO)[C@]2(C)N=C(/C(C)=C3N=C(/C=C4N=C1[C@@H](CCC(N)=O)C\4(C)C)[C@@H](CCC(N)=O)[C@]\3(C)CC(N)=O)[C@@H](CCC(N)=O)[C@]2(C)CC(N)=O.[CH3-].[Co+3] [Methylcobalamin] | – | – | – | – | 1-D Distance.npi (Rlig1-AMP [2]; [3]): 89.4559; 1-D Distance (Rlig1-AMP [2]; [4]): 977; Raw data [w Enyzm] (Rlig1-AMP [2]; sheet HTS hits, with enzyme): 4140; Raw data [w/o Enzym] (Rlig1-AMP [2]; sheet HTS hits, without enzyme): 5117
4 | LL-37, human (TFA) | 99 | 6495 | 6396 | – | 1-D Distance.npi (Rlig1-AMP [2]; [5]): 104.017
5 | COC(=O)Cc1ccc(C(C)(C)C)cc1 [Methyl p-tert-butylphenylacetate] | – | 8807 | 10874 | 2067 | 1-D Distance.npi (Rlig1-AMP [2]; [8]): 70.3748
6 | Cl[TeH]1(Cl)(Cl)OCCO1 [Ossirene] | – | 4805 | 6468 | 1663 | –
7 | CN(C)CCOC(=O)COc1ccc(Cl)cc1.Cl [Meclofenoxate (hydrochloride)] | 1832 | 9480 | 11312 | – | 1-D Distance.npi (Rlig1-AMP [2]; [5]): 72.0073
8 | NC[C@@H]1O[C@H](O[C@H]2[C@@H](O)[C@H](O[C@@H]3[C@@H](O)[C@H](N)C[C@H](N)[C@H]3O[C@H]3O[C@H](CO)[C@@H](O)[C@H](O)[C@H]3N)O[C@@H]2CO)[C@H](N)[C@@H](O)[C@@H]1O.O=S(=O)(O)O [Paromomycin (sulfate)] | – | 8444 | 9664 | 1220 | 1-D Distance.npi (Rlig1-AMP [2]; [8]): 82.0351
9 | COc1cc(S(=O)(=O)[O-])ccc1O.[K+] [Sulfogaiacol] | – | – | – | – | 1-D Distance.npi (Rlig1-AMP [2]; [3]): 81.4409; 1-D Distance (Rlig1-AMP [2]; [4]): 1427; Raw data [w Enyzm] (Rlig1-AMP [2]; sheet HTS hits, with enzyme): 8908; Raw data [w/o Enzym] (Rlig1-AMP [2]; sheet HTS hits, without enzyme): 10335
10 | O.O=C1C=CC[C@@H]2[C@H]3CCCN4CCC[C@@H](CN12)[C@@H]34 [Sophocarpine (monohydrate)] | – | 8885 | 10719 | 1834 | 1-D Distance.npi (Rlig1-AMP [2]; [8]): 71.833
11 | COS(=O)(=O)[O-].C[n+]1c2ccccc2nc2ccccc21 [Phenazine (methylsulfate)] | 1419 | 2478 | 3897 | – | 1-D Distance.npi (Rlig1-AMP [2]; [5]): 78.9166
12 | CC(=O)Nc1ccc(S(=O)(=O)[O-])c2cc(S(=O)(=O)[O-])c(N=Nc3ccc(N=Nc4ccc(S(=O)(=O)[O-])cc4)c4ccc(S(=O)(=O)[O-])cc34)c(O)c12.[Na+].[Na+].[Na+].[Na+] [Brilliant Black BN] | 272 | 1620 | 1348 | – | 1-D Distance.npi (Rlig1-AMP [2]; [5]): 98.2105
13 | Cn1nc(-c2ccc(C(F)(F)F)cc2)nc2c(=O)n(C)c(=O)nc1-2 [Compound 11, reference compound] | – | – | – | – | IC50 (in words) (Rlig1-AMP [1]; concentration-dependent radioactive ligation assay): nanomolar range
14 | Cc1cccc2c3c(ccc12)C(=O)C1=C(OCC1C)C3=O (stereo not shown) [Dihydroisotanshinone I] | – | – | – | – | 1-D Distance.npi (Rlig1-AMP [2]; [3]): 72.3395; 1-D Distance (Rlig1-AMP [2]; [4]): 1938; Raw data [w Enyzm] (Rlig1-AMP [2]; sheet HTS hits, with enzyme): 11164; Raw data [w/o Enzym] (Rlig1-AMP [2]; sheet HTS hits, without enzyme): 13102
15 | CC(/C=C/C=C(\C)C(=O)O[C@@H]1O[C@H](CO[C@@H]2O[C@H](CO)[C@@H](O)[C@H](O)[C@H]2O)[C@@H](O)[C@H](O)[C@H]1O)=C\C=C\C=C(C)\C=C\C=C(/C)C(=O)O[C@@H]1O[C@H](CO[C@@H]2O[C@H](CO)[C@@H](O)[C@H](O)[C@H]2O)[C@@H](O)[C@H](O)[C@H]1O [Crocin] | 1393 | 2370 | 3763 | – | –
16 | Cc1ncsc1-c1ccc(CNC(=O)[C@@H]2C[C@@H](O)CN2C(=O)[C@@H](NC(=O)CCN)C(C)(C)C)cc1.Cl.Cl [(S,R,S)-AHPC-C2-NH2 (dihydrochloride)] | – | – | – | – | 1-D Distance.npi (Rlig1-AMP [2]; [3]): 76.891; 1-D Distance (Rlig1-AMP [2]; [4]): 1672; Raw data [w Enyzm] (Rlig1-AMP [2]; sheet HTS hits, with enzyme): 9239; Raw data [w/o Enzym] (Rlig1-AMP [2]; sheet HTS hits, without enzyme): 10911

Row | Compound | 1-D Distance (Rlig1-AMP [2]; [6]) | Raw data [w Enyzm] (Rlig1-AMP [2]; HTS hits, with enzyme) | Raw data [w/o Enzym] (Rlig1-AMP [2]; HTS hits, without enzyme) | 1-D Distance (Rlig1-AMP [2]; [7]) | also measured
17 | Cl.Cl.Cn1cc(NC(=O)c2cc(NC(=O)CN=C(N)N)cn2C)cc1C(=O)NCCC(=N)N [Netropsin (dihydrochloride)] | – | 8749 | – | 1774 | 1-D Distance.npi (Rlig1-AMP [2]; [8]): 75.4127
18 | CC(C)c1nc2c([nH]1)-c1ccccc1C(=O)C2=O [KL1333] | – | 12041 | 12619 | 578 | 1-D Distance.npi (Rlig1-AMP [2]; [9]): 96.7085
19 | Vitamin B12 | – | 5329 | 5909 | 580 | 1-D Distance.npi (Rlig1-AMP [2]; [8]): 94.3021
20 | CC1=NN(c2ccc(C)c(C)c2)C(=O)/C1=N\Nc1cccc(-c2cccc(C(=O)O)c2)c1O.NCCO.NCCO [Eltrombopag (Olamine)] | – | – | – | – | 1-D Distance.npi (Rlig1-AMP [2]; [3]): 92.4928; 1-D Distance (Rlig1-AMP [2]; [4]): 680; Raw data [w Enyzm] (Rlig1-AMP [2]; sheet HTS hits, with enzyme): 3683; Raw data [w/o Enzym] (Rlig1-AMP [2]; sheet HTS hits, without enzyme): 4363
21 | C/C1=C2/[N-]C([C@H](CC(N)=O)[C@@]2(C)CCC(=O)NC[C@@H](C)OP(=O)([O-])O[C@H]2[C@@H](O)[C@@H](n3cnc4cc(C)c(C)cc43)O[C@@H]2CO)[C@]2(C)N=C(/C(C)=C3N=C(/C=C4N=C1[C@@H](CCC(N)=O)C\4(C)C)[C@@H](CCC(N)=O)[C@]\3(C)CC(N)=O)[C@@H](CCC(N)=O)[C@]2(C)CC(N)=O.CC(=O)[O-].[Co+3] [Hydroxocobalamin (acetate)] | 1452 | 4827 | 6279 | – | 1-D Distance.npi (Rlig1-AMP [2]; [5]): 78.9236
22 | CCCCCCCCCCCCCCCC(=O)NCCCC[C@@H](N)C(=O)NCCCNCCCCNCCCN.Cl.Cl.Cl.Cl [AMXT-1501 tetrahydrochloride] | – | 4942 | 4897 | 45 | 1-D Distance.npi (Rlig1-AMP [2]; [9]): 103.958
23 | Verteporfin | – | 1492 | 2728 | 1236 | 1-D Distance.npi (Rlig1-AMP [2]; [8]): 82.5479
24 | COc1cccc2c1C(=O)c1c(O)c3c(c(O)c1C2=O)C[C@@](O)(C(C)=O)C[C@@H]3O[C@H]1C[C@H](NC(=O)OCc2ccc(O[C@@H]3O[C@H](CO)[C@H](O)[C@H](O)[C@H]3O)c([N+](=O)[O-])c2)[C@H](O)[C@H](C)O1 [Daun02] | – | 2111 | 3545 | 1434 | 1-D Distance.npi (Rlig1-AMP [2]; [9]): 83.3585
25 | O=C(O)c1ccc(-c2ccc(N(c3ccc(-c4ccc(C(=O)O)cc4)cc3)c3ccc(-c4ccc(C(=O)O)cc4)cc3)cc2)cc1 [Antibacterial agent 18] | 1227 | 12110 | 13337 | – | 1-D Distance.npi (Rlig1-AMP [2]; [5]): 80.2581
26 | N#Cc1cc(NS(=O)(=O)c2ccc(N)cc2)ccc1Oc1ccc(Cl)c(C(F)(F)F)c1 [Lp-PLA2-IN-3] | 555 | 9448 | – | – | 1-D Distance.npi (Rlig1-AMP [2]; [5]): 92.9896
27 | NCCNc1ccc(NCCN)c2c1C(=O)c1ccncc1C2=O.O=C(O)/C=C\C(=O)O.O=C(O)/C=C\C(=O)O [Pixantrone (dimaleate)] | 1138 | 4061 | 5199 | – | 1-D Distance.npi (Rlig1-AMP [2]; [5]): 84.4919
28 | CC(C)c1cccc(C(C)C)c1O [Propofol] | – | – | – | – | 1-D Distance (Rlig1-AMP [2]): 1959; Raw data [w Enyzm] (Rlig1-AMP [2]): 8754; Raw data [w/o Enzym] (Rlig1-AMP [2]): 10713
29 | C[n+]1ccc(/C=C/c2ccc3c(c2)c2cc(/C=C/c4cc[n+](C)cc4)ccc2n3CCOCCOCCOCC[N+]2(C)CCCCC2)cc1.[I-].[I-].[I-] [BMVC-8C3O] | – | 3841 | 4337 | 496 | 1-D Distance.npi (Rlig1-AMP [2]; [9]): 99.5333
30 | c1cnc(N2CCN(Cc3ccc4c(c3)OCO4)CC2)nc1 [Piribedil] | 1702 | 9369 | 11071 | – | –
31 | CN(C)c1ccc(Nc2c3ccc(NC(=O)CCN4CCCC4)cc3nc3cc(NC(=O)CCN4CCCC4)ccc23)cc1.Cl.Cl.Cl [Braco-19 (trihydrochloride)] | – | 2490 | 2391 | 99 | 1-D Distance.npi (Rlig1-AMP [2]; [8]): 102.921
